One test has as its target human rho-2 receptors (Homo sapiens, UniProt P28476). Description: Antagonist KB at human homo-oligomeric rho-2 GABAC receptors. The format is cell-based. Particulars: for Kb: human rho-2.
Test [1] deals with T1, GABAA.
T1 construct: Activity at GABAA; other: Woodward et al, 1993; GABAA Kb; other: Ragozzino et al (1996); other: PMPA; source not given, column fo
Description: Inhibition of [3H]muscimol binding using rat cortical membranes. Particulars: PMPA; source not given, column footnote is [3H]muscimol binding; read-out: GABAA receptor affinity, IC50.

In test [2] the target is human r1 receptors (GABAC receptors) (Homo sapiens, UniProt P24046). Nature of the test: Two-electrode voltage clamp recording of human r1 GABAC receptors expressed in Xenopus oocytes. (In two-electrode clamp one electrode senses voltage and the other passes current.)
Description: The plasmid was linearized with XbaI and cRNA made using the “Message Machine” kit from Ambion Inc. (Austin, Tex., USA). 50 ng of cRNA was injected into defolliculated Stage V Xenopus oocytes. Two to seven days later, receptor activity was measured by two-electrode voltage clamp recording, using a Geneclamp 500 amplifier (Axon Instruments Inc., Foster City, Calif., USA) and a MacLab 2e recorder (ADInstruments, Sydney, NSW, Australia). […] For receptor activation measurements, the indicated concentrations of agonist and antagonist were added to ND96.
In test [3] the target is T2, GABAB (Rattus norvegicus, UniProt Q9Z0U4). Description: Frequency of spontaneous discharges in neocortical slices, grease-gap recording. More on the design: from tissue; host or cells: rat cortical membranes / neocortical slices; values largely from the literature. Particulars: read-out: GABAB receptor affinity.
Target sequence in this assay (Q9Z0U4 17-960 limits assumed): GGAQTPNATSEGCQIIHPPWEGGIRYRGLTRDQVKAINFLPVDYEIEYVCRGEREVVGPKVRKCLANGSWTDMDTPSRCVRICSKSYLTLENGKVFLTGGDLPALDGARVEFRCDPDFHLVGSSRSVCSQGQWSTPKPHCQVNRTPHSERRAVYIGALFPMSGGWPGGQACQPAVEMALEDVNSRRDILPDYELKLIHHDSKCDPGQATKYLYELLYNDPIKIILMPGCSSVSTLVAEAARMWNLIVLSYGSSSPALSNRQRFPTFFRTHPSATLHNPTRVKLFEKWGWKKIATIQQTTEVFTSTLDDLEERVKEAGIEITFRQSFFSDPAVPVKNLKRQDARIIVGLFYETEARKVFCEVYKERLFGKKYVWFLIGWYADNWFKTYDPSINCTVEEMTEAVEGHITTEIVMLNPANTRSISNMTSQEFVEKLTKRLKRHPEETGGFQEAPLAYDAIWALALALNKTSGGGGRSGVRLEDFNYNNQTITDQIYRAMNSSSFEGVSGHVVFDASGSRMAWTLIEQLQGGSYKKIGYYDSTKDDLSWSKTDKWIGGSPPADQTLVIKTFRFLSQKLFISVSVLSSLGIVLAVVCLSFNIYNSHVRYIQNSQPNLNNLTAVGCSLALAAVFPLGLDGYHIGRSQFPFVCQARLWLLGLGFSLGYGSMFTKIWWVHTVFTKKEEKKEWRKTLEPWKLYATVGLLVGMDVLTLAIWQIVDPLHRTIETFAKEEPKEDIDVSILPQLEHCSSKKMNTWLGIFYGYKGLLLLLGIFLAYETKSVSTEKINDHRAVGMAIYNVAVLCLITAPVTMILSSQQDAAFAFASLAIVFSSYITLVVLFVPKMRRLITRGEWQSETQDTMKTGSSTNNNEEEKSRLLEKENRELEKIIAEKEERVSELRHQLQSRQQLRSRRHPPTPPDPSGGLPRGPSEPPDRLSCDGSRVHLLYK
Target sequence in this assay (O88871 41-940 partner): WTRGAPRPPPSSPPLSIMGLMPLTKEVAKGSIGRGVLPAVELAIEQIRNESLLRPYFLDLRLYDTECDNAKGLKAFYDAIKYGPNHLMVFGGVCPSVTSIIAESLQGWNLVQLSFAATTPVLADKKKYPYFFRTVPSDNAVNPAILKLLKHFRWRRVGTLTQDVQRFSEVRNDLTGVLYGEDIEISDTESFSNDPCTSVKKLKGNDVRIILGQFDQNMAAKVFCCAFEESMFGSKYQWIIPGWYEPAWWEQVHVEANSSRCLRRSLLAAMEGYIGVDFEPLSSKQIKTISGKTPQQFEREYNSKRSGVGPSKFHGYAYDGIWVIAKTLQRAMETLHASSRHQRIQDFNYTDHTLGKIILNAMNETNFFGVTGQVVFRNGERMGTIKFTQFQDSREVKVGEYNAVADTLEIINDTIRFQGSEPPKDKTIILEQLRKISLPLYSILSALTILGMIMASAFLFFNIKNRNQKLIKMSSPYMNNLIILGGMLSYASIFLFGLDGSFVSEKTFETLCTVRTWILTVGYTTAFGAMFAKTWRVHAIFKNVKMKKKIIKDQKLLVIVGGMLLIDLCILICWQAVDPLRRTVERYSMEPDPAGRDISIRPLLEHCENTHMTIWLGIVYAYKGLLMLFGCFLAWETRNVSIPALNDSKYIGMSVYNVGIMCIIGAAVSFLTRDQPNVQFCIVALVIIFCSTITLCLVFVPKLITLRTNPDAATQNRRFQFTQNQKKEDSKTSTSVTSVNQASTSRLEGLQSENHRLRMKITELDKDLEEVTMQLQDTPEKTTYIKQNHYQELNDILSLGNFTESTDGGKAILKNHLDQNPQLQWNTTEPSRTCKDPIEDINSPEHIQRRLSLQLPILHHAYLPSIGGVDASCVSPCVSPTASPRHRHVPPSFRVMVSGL
The test system of test [4] is T1, GABAA. The note with it: Ragozzino et al (1996); cited from earlier work.
Test [5] deals with T2, GABAB. Also noted: from tissue; host or cells: hippocampal slices (pyramidal neurons). The note with it: bicuculline 20 μM; Ragozzino et al (1996); cited from earlier work.
Target sequence in this assay (Q9Z0U4 20-960): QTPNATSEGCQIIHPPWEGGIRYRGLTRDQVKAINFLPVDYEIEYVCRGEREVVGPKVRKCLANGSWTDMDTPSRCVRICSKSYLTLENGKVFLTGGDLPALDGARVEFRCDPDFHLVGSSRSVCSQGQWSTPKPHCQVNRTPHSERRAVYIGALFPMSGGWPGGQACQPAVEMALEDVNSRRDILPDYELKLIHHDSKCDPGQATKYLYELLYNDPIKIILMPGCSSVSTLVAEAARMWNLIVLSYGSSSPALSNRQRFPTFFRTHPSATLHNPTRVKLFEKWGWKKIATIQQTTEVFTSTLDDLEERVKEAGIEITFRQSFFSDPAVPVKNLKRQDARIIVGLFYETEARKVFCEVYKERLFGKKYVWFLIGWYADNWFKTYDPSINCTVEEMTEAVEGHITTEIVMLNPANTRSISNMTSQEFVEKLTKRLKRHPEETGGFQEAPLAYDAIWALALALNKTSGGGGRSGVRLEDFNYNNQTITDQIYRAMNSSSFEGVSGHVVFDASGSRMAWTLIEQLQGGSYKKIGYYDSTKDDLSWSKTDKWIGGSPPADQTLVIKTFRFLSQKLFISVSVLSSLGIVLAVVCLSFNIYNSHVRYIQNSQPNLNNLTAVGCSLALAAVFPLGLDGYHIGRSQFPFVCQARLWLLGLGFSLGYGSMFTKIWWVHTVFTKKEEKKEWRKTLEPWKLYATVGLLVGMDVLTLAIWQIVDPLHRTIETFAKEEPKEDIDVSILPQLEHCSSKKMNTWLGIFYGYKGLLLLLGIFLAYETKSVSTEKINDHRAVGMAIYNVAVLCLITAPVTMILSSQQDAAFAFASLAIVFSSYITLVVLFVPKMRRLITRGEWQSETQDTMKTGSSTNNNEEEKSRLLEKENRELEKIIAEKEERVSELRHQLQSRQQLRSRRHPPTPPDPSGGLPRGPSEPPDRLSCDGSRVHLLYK
Target sequence in this assay (O88871 41-940 partner): as the sequence (O88871 41-940 partner) above
A further test has as its target T3, GABAC (human r1) (Homo sapiens, UniProt P24046).
T3 construct: host or cells: Xenopus oocytes expressing human r1 mRNA
Particulars: cited from earlier work.

The next test relates to chicks. Nature of the test: Memory consolidation in chicks, anthranilate-coated bead discrimination. It counts as in vivo, chick. As to the method:
This procedure trains each chick on anthranilate-coated red beads, which have a bitter taste. In the test, 120 min. after the initial exposure to the red bead each chick is presented with a blue and a red bead, and normally will avoid pecking at the red bead; the discrimination ratio measures how well it remembers to do this. Chicks trained on 100% anthranilate-coated beads produce a discrimination ratio better than 0.9, and drug-induced memory deficits can be detected in this group. However, chicks trained on 20% anthranilate-coated beads produce a discrimination ratio of around 0.6, and this group can be used to detect drug-induced memory enhancement. Drugs are delivered by two bilateral intracranial injections (10 μL each).

The test system of another test is male Swiss mice. Description: Elevated plus-maze memory test. The format is in vivo. The protocol:
In this assay mice are trained by placing them at the end of the open arm of the plus maze and allowing them to find the shelter of the closed arms. The time taken is measured as the ‘latency’. Immediately after the trial the mice are injected with the test drug or with a saline control. […]

Setting [6] is: Murata et al, 1996, Ragozzino et al.

We go through two molecules from patent publication US6632806B1, “Neurologically-active compounds” (The University of Sydney, priority 1997, dated 2003).

Sequence of human r1 receptors (GABAC receptors) (P24046 22-479): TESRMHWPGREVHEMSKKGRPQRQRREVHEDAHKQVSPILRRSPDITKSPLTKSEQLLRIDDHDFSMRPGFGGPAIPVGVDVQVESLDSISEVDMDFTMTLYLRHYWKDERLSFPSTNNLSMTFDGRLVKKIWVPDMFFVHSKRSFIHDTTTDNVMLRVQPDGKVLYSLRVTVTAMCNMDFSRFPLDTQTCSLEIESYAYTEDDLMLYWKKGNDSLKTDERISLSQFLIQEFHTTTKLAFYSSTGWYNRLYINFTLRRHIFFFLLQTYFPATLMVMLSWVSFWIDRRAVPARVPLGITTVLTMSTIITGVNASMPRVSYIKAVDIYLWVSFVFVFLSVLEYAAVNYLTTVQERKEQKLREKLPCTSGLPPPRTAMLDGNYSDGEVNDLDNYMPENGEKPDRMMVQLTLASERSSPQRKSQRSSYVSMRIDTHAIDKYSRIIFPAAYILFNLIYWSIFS
T3 sequence (P24046 22-479): as above
Sequence of human rho-2 receptors (P28476 21-465): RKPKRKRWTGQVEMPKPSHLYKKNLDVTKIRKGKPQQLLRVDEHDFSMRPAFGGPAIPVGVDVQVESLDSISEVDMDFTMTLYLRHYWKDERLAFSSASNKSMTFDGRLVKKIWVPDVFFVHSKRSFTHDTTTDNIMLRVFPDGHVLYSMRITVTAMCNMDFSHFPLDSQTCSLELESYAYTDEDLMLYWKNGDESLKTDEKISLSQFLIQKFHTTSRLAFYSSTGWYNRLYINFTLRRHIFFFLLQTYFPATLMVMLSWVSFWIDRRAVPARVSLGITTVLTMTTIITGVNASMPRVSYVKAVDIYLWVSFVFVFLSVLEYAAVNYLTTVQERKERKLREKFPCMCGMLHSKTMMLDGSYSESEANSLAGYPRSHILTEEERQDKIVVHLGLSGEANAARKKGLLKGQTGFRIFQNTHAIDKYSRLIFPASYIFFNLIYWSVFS

With `CP(=O)(O)C1CCNCC1` [PMPA, piperidine-4-(methyl)phosphinic acid], the Kb stood at 4.2 ± 0.2 µM at human rho-2 receptors and 6 ± 1.2 µM in test [2]. Also, the IC50 was over 100 µM at GABAA [1]; 6 µM in test [2] (IC50 (concentration that inhibits 50% of the response produced by 1 μM GABA), 1 μM GABA); over 1000 µM at GABAB [3].

Usually EC50 stands for the concentration at which the effect is half-maximal. One may read the Kd as the concentration at which binding is half-saturated. On to `CP(=O)(O)C1=CCNCC1` [TPMPA], for which the “Potency at blocking rho-2 receptors relative to rho-1 GABAC receptors” value on human rho-2 receptors (human homo-oligomeric receptors) is reported as “an order of magnitude less potent”. In addition, the Kb is 15.6 ± 1.6 µM at human rho-2 receptors; 320 µM with GABAA [4]; 2.1 µM on GABAC (human r1) (data from Murata et al, 1996); 2 ± 0.4 µM in [2]. In addition, at GABAB [5], the EC50 was about 500 µM. At GABAC (human r1) (Murata et al, 1996, Ragozzino et al, 1996, read-out: KD, GABAC receptor antagonist activity), the Kd was 2.1 µM. The “Selectivity as antagonist for GABAC receptors over GABAB receptors” value on GABAC (human r1) (setting [6]) is listed as “more than 100 fold”. The “Selectivity at GABAC receptors over GABAA receptors” value at GABAC (human r1) (setting [6]) was 500 fold. Besides, at GABAC (human r1) (read-out: Concentration producing 50% inhibition of GABAC receptor activation), the IC50 is 2.1 µM. Also, the “Effect on memory (discrimination ratio)” value in the test with chicks (30 μM, intracranial injection, chicks trained with 20% anthranilate) is recorded as “enhances memory”. Also, the “Time of injection after training giving optimum effect” value with chicks (in vivo) is at most 2.5 min. The Effect on latency entry in the test on male Swiss mice (50 mg/Kg, repeat experiment, tested only after 14 days, Swiss mice from a different source) is “significantly reduced latency”; with male Swiss mice (200 mg/Kg, first experiment, 14 day test) it was “significantly reduces the latency”.
